Drawing on patent publication US8779157B2, “MGLUR4 allosteric potentiators, compositions, and methods of treating neurological dysfunction” (Vanderbilt University, priority 2009, dated 2014), this text covers EC50 for 28 compounds.

This test has as its target mGluR4 (UniProt Q14833). In words: mGluR4 potentiation assay (fluorescence, Ca2+ or thallium/GIRK readout; EC20 agonist). The test is classed as cell-based, human / rat. The conditions noted are these: half maximal effective concentration for mGluR4 potentiation; species of receptor not given. Here is the method:
The disclosed compounds and compositions can be evaluated for their ability to act as a potentiator of metabotropic glutamate receptor activity, in particular mGluR4 activity, by any suitable known methodology known in the art. For example, Chinese Hamster Ovary (CHO) cells transfected with human mGluR4 or HEK cells co-transfected with rat mGluR4 and the G-protein regulated Inwardly Rectifying Potassium channel (GIRK) were plated in clear bottom assay plates for assay in a Hamamatsu FDSS Fluorometric Plate Reader. The cells were loaded with either a Ca2+-sensitive fluorescent dye or the thallium responsive dye and the plates were washed and placed into a suitable kinetic plate reader. For human mGluR4 assays, a fluorescence baseline was established for 3-5 seconds, the disclosed compounds were then added to the cells, and the response in cells was measured. Approximately two and a half minutes later, a concentration of mGluR4 orthosteric agonist (e.g. glutamate or L-AP4) eliciting approximately 20% (EC20) of the maximal agonist response was added to the cells, and the response was measured. Two minutes later, a concentration of mGluR4 agonist (e.g. glutamate or L-AP4) eliciting 80% (EC80) of the maximal agonist response was added to the cells, and the response was measured. For rat mGluR4/GIRK experiments, a baseline was established for approximately five seconds, disclosed compounds were added, and either an EC20 or EC80 concentration of agonist was added approximately two and one half minutes later. Potentiation of the agonist response of mGluR4 by the disclosed compounds was observed as an increase in response to the EC20 concentration of agonist in the presence of compound compared to the response to agonist in the absence of compound. Similarly, antagonism of the agonist response of mGluR4 by the disclosed compounds was observed as a decrease in response to the EC80 concentration of agonist in the presence of compound compared to the response to agonist in the absence of compound.
The above described assay operated in two modes. In the first mode, a range of concentrations of the disclosed compounds are added to cells, followed by a single fixed concentration of agonist. If the compound acts as a potentiatior, an EC50 value for potentiation and a maximum extent of potentiation by the compound at this concentration of agonist is determined by non-linear curve fitting. If the compound acts as a noncompetitive antagonist, an IC50 value is determined by non-linear curve fitting. In the second mode, several fixed concentrations of the disclosed compounds are added to various wells on a plate, followed by a range in concentrations of agonist for each concentration of disclosed compound. The EC50 values for the agonist at each concentration of compound are determined by non-linear curve fitting. A decrease in the EC50 value of the agonist with increasing concentrations of the sample compound (a leftward shift of the agonist concentration-response curve) is an indication of the degree of mGluR4 potentiation at a given concentration of the sample compound. A decrease in the maximal response of the agonist with increasing concentrations of the sample compounds, with or without a rightward shift in agonist potency, is an indication of the degree of noncompetitive antagonism at mGluR4. The second mode also indicates whether the sample compounds also affect the maximum response to mGluR4 to agonists.
For the compound `O=C(Nc1ccc(N2C(=O)C3CCCCN3C2=O)c(Cl)c1)c1cccc(F)n1` (stereo not shown) [Example 1.3.4, N-(3-Chloro-4-(1,3-dioxotetrahydroimidazo[1,5-a]pyridin-2(1H,3H,5H)-yl)phenyl)-6-fluoropicolinamide], the EC50 was 1.67 µM.
Regarding `CS(=O)(=O)N1CCN2C(=O)N(c3ccc(NC(=O)c4ccccn4)cc3Cl)C(=O)C2C1` (stereo not shown) [Example 1.3.47, N-(3-chloro-4-(7-(methylsulfonyl)-1,3-dioxotetrahydroimidazo[1,5-a]pyrazin-2(1H,3H,5H)-yl)phenyl)picolinamide], the EC50 is 4.71 µM.
On to `C[C@@]1(Cc2ccccc2)NC(=O)N(c2ccc(NC(=O)c3ccccn3)cc2Cl)C1=O` [Example 1.3.20, (S)-N-(4-(4-benzyl-4-methyl-2,5-dioxoimidazolidin-1-yl)-3-chlorophenyl)picolinamide], for which the half-maximal effective concentration (EC50) stood at 0.604 µM.
Consider `O=C(Nc1ccc(N2C(=O)C3COCCN3C2=O)c(Cl)c1)c1ccc(Cl)o1` (stereo not shown) [Example 1.3.28, 5-Chloro-N-(3-chloro-4-(1,3-dioxodihydro-1H-imidazo[5,1-c][1,4]oxazin-2(3H,8H,8aH)-yl)phenyl)furan-2-carboxamide], for which the EC50 turned out to be 8.77 µM.
As for `CC12CCCCN1C(=O)N(c1ccc(NC(=O)c3cccc(F)n3)cc1Cl)C2=O` (stereo not shown) [Example 1.3.90, N-(3-chloro-4-(8a-methyl-1,3-dioxohexahydroimidazo[1,5-a]pyridin-2(3H)-yl)phenyl)-6-fluoropicolinamide], the EC50 amounted to 1.12 µM.
Next, `CN1C(=O)N(c2ccc(NC(=O)c3ccccn3)cc2Cl)C(=O)[C@]1(C)Cc1ccccc1` [Example 1.3.64, (S)-N-(4-(4-benzyl-3,4-dimethyl-2,5-dioxoimidazolidin-1-yl)-3-chlorophenyl)picolinamide]: 0.197 µM; `CC(C)[C@@]1(C)NC(=O)N(c2ccc(NC(=O)c3ccccn3)cc2Cl)C1=O` [Example 1.3.60, (R)-N-(3-chloro-4-(4-isopropyl-4-methyl-2,5-dioxoimidazolidin-1-yl)phenyl)picolinamide]: 3.59 µM; `O=C(Nc1ccc(N2C(=O)C3COCCN3C2=O)c(Cl)c1)c1cccc(Cl)n1` (stereo not shown) [Example 1.3.23, 6-Chloro-N-(3-chloro-4-(1,3-dioxodihydro-1H-imidazo[5,1-c][1,4]oxazin-2(3H,8H,8aH)-yl)phenyl)picolinamide]: 4.83 µM.
On to `COc1cccc(C(=O)Nc2ccc(N3C(=O)N[C@@](C)(Cc4ccccc4)C3=O)c(Cl)c2)n1` [Example 1.3.68, (S)-N-(4-(4-benzyl-4-methyl-2,5-dioxoimidazolidin-1-yl)-3-chlorophenyl)-6-methoxypicolinamide], for which the EC50 was 5.88 µM.
Next, `O=C(Nc1ccc(N2C(=O)NC3(CCC3)C2=O)c(Cl)c1)c1ccccn1` [Example 1.3.14, N-(3-chloro-4-(6,8-dioxo-5,7-diazaspiro[3.4]octan-7-yl)phenyl)picolinamide]: 1.28 µM; `O=C(Nc1ccc(N2C(=O)C3COCCN3C2=O)c(Cl)c1)c1ncc(F)cc1F` (stereo not shown) [Example 1.3.27, N-(3-Chloro-4-(1,3-dioxodihydro-1H-imidazo[5,1-c][1,4]oxazin-2(3H,8H,8aH)-yl)phenyl)-3,5-difluoropicolinamide]: 2.93 µM; `O=C(Nc1ccc(N2C(=O)C3CCCCN3C2=S)c(Cl)c1)c1cnccn1` (stereo not shown) [Example 1.3.76, N-(3-chloro-4-(1-oxo-3-thioxohexahydroimidazo[1,5-a]pyridin-2(3H)-yl)phenyl)pyrazine-2-carboxamide]: 5.04 µM.
Consider `CC(C)N1C(=O)N(c2ccc(NC(=O)c3ccccn3)cc2Cl)C(=O)[C@@H]1C(C)(C)C` [Example 1.3.58, (S)-N-(4-(4-(tert-butyl)-3-isopropyl-2,5-dioxoimidazolidin-1-yl)-3-chlorophenyl)picolinamide], for which the EC50 was found to be 0.2 µM.
For the compound `O=C(Nc1ccc(N2C(=O)NC(C3CCCCC3)C2=O)c(Cl)c1)c1ccccn1` (stereo not shown) [Example 1.3.70, N-(3-chloro-4-(4-cyclohexyl-2,5-dioxoimidazolidin-1-yl)phenyl)picolinamide], the EC50 is 0.743 µM.
Regarding `CC12CCCCN1C(=S)N(c1ccc(NC(=O)c3cccnn3)cc1Cl)C2=O` (stereo not shown) [Example 1.3.100, N-(3-chloro-4-(8a-methyl-1-oxo-3-thioxohexahydroimidazo[1,5-a]pyridin-2(3H)-yl)phenyl)pyridazine-3-carboxamide], the concentration for a half-maximal effect (EC50) is 1.9 µM.
Next, `CC(C)C[C@]1(C)NC(=O)N(c2ccc(NC(=O)c3ccccn3)cc2Cl)C1=O` [Example 1.3.16, (S)-N-(3-chloro-4-(4-isobutyl-4-methyl-2,5-dioxoimidazolidin-1-yl)phenyl)picolinamide]: 3.59 µM; `CC12CCCCN1C(=O)N(c1ccc(NC(=O)c3ccccn3)cc1Cl)C2=O` (stereo not shown) [Example 1.3.48, N-(3-chloro-4-(8a-methyl-1,3-dioxohexahydroimidazo[1,5-a]pyridin-2(3H)-yl)phenyl)picolinamide]: 0.434 µM; `O=C(Nc1ccc(N2C(=O)C3CN(C(=O)c4ccco4)CCN3C2=O)c(Cl)c1)c1ccccn1` (stereo not shown) [Example 1.3.74, N-(3-chloro-4-(7-(furan-2-carbonyl)-1,3-dioxohexahydroimidazo[1,5-a]pyrazin-2(3H)-yl)phenyl)picolinamide]: 0.967 µM.
Then `O=C(Nc1ccc(N2C(=O)C3CCCCN3C2=O)c(Cl)c1)c1ncccc1F` (stereo not shown) [Example 1.3.7, N-(3-Chloro-4-(1,3-dioxotetrahydroimidazo[1,5-a]pyridin-2(1H,3H,5H)-yl)phenyl)-3-fluoropicolinamide], with 3.31 µM.
Turning to `O=C(Nc1ccc(N2C(=O)C3CCCCN3C2=O)c(Cl)c1)c1cscn1` (stereo not shown) [Example 1.3.5, N-(3-Chloro-4-(1,3-dioxotetrahydroimidazo[1,5-a]pyridin-2(1H,3H,5H)-yl)phenyl)thiazole-4-carboxamide], the EC50 came out at 1.98 µM.
As for `CC12CCCCN1C(=O)N(c1ccc(NC(=O)c3nccs3)cc1Cl)C2=O` (stereo not shown) [Example 1.3.86, N-(3-chloro-4-(8a-methyl-1,3-dioxohexahydroimidazo[1,5-a]pyridin-2(3H)-yl)phenyl)thiazole-2-carboxamide], the 50% effective concentration (EC50) is 1.63 µM.
Regarding `O=C(Nc1ccc(N2C(=O)C3COCCN3C2=S)c(Cl)c1)c1ncc(F)cc1F` (stereo not shown) [Example 1.3.36, N-(3-Chloro-4-(1-oxo-3-thioxodihydro-1H-imidazo[5,1-c][1,4]oxazin-2(3H, 8H,8aH)-yl)phenyl)-3,5-difluoropicolinamide], the EC50 was determined as 1.68 µM.
In the case of `CC(=O)N1CCN2C(=O)N(c3ccc(NC(=O)c4ccccn4)cc3Cl)C(=O)C2C1` (stereo not shown) [Example 1.3.72, N-(4-(7-acetyl-1,3-dioxohexahydroimidazo[1,5-a]pyrazin-2(3H)-yl)-3-chlorophenyl)picolinamide], the EC50 was 4.51 µM.
For `CC12CCCCN1C(=S)N(c1ccc(NC(=O)c3cnccn3)cc1Cl)C2=O` (stereo not shown) [Example 1.3.92, N-(3-chloro-4-(8a-methyl-1-oxo-3-thioxohexahydroimidazo[1,5-a]pyridin-2(3H)-yl)phenyl)pyrazine-2-carboxamide], the 50% effective concentration (EC50) was determined as 1.91 µM.
As for `CN1C(=O)N(c2ccc(NC(=O)c3ccccn3)cc2Cl)C(=O)C12CC1CCC2C1` (stereo not shown) [Example 1.3.54, N-(3-chloro-4-(3′-methyl-2′,5′-dioxospiro[bicyclo[2.2.1]heptane-2,4′-imidazolidin]-1′-yl)phenyl)picolinamide], the EC50 amounted to 0.325 µM.
In the case of `CN1C(=O)N(c2ccc(NC(=O)c3ccccn3)cc2Cl)C(=O)C12CCCCC2` [Example 1.3.52, N-(3-chloro-4-(1-methyl-2,4-dioxo-1,3-diazaspiro[4.5]decan-3-yl)phenyl)picolinamide], the EC50 was 0.178 µM.
Then `O=C(Nc1ccc(N2C(=O)C3COCCN3C2=S)c(Cl)c1)c1cnccn1` (stereo not shown) [Example 1.3.31, N-(3-Chloro-4-(1-oxo-3-thioxodihydro-1H-imidazo[5,1-c][1,4]oxazin-2(3H,8H,8aH)-yl)phenyl)pyrazine-2-carboxamide], with 3.56 µM; and `O=C(Nc1ccc(N2C(=O)C3CCCCN3C2=S)c(Cl)c1)c1ncccc1F` (stereo not shown) [Example 1.3.84, N-(3-chloro-4-(1-oxo-3-thioxohexahydroimidazo[1,5-a]pyridin-2(3H)-yl)phenyl)-3-fluoropicolinamide], with 0.993 µM.
